The target in assay [1] is kinase panel containing either 386 or 392 distinct kinases. The assay can be described thus: Kinase selectivity score S10 from competition binding panel. As to the method: Competition binding assays used herein were developed, validated and performed as described in Fabian et al., Nature Biotechnology 2005, 23, 329-336. Kinases were produced as fusions to T7 phage (See, Fabian et al. or WO04/015142) or alternatively, the kinases were expressed in HEK-293 cells and subsequently tagged with DNA for PCR detection (See, WO08/005310). For the binding assays, streptavidin-coated magnetic beads were treated with biotinylated affinity ligands for 30 min at room temperature to generate affinity resins. The liganded beads were blocked with excess biotin and washed with blocking buffer (SeaBlock (Pierce), 1% BSA, 0.05% Tween 20, 1 mM DTT) to remove unbound ligand and to reduce non-specific binding. Binding reactions were assembled by combining kinase, liganded affinity beads, and test compounds in 1× binding buffer (20% SeaBlock, 0.17×PBS, 0.05% Tween 20, 6 mM DTT). Test compounds were prepared as 100× stocks in DMSO and diluted into the aqueous environment. Kds were determined using an eleven point threefold serial dilutions. DMSO or control compounds were was added to control assays lacking a test compound. Primary screen assays were performed in polypropylene 384-well plates in a final volume of 20-40 μL, while Kd determinations were performed in polystyrene 96-well plates in a final volume of 135 μL. The assay plates were incubated at room temperature with shaking for 1 hour to allow the binding reactions to reach equilibrium, and the affinity beads were washed extensively with wash buffer (1×PBS, 0.05% Tween 20) to remove unbound protein. The beads were then resuspended in elution buffer (1×PBS, 0.05% Tween […] non-biotinylated affinity ligand) and incubated at room temperature with shaking for 30 min. The kinase concentration in the eluates was measured by quantitative PCR.
A selectivity score (S10) is a quantitative measure of selectivity of a compound against a panel of kinases. An S10 was calculated for a compound by dividing the number of kinases found to have a percent of control (DMSO) less than 10 by the total number of distinct kinases tested (excluding mutant variants). Percent of control (POC) is calculated by subtracting the signal of the control compound (POC=0) from the signal of the test compound and dividing the outcome by the signal of DMSO (POC=100) minus the signal of the control compound. For the compounds disclosed herein, S10 scores were obtained by testing the compounds at 10 μM concentration in a kinase panel containing either 386 or 392 distinct kinases.

The next assay deals with T1, PDGFRβ (Homo sapiens, UniProt P09619).
T1 construct: made in house
Kind of assay: Competition binding assay, PDGFRβ Kd. The essentials: (§1)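 Read-out is quantitative PCR of kinase recovered from affinity beads after competition with test compound. Binding reached equilibrium over 1 hour at room temperature; Kd values come from eleven-point threefold serial dilutions.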

Assay [2] addresses T2, CSF1R (Homo sapiens, UniProt P07333). Kind of assay: HEK293 CSF1R phosphorylation MSD assay. The assay is classed as cell-based. More on the design: expressed in transfected cells; host or cells: HEK293. As to conditions: read-out: HEK293 pCSF1R M-CSF MSD:IC50. The essentials:
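Ligand-induced CSF1R autophosphorylation was measured by MSD sandwich assay: CSF1R-FKBP from lysates captured via FK506, anti-phosphotyrosine readout. Cells were exposed to compound for 2 h (9-point, half-log, 0.5% DMSO) before 5 min 50 ng/mL M-CSF. Reported IC50 is the mean of duplicate-plate IC50s relative to DMSO control.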

Another assay concerns the target T3, KIT (Homo sapiens, UniProt P10721).
T3 construct: made in house
The assay can be described thus: Competition binding assay, KIT Kd. The essentials:
as §1

Assay [3] concerns the target T2, CSF1R. Kind of assay: Competition binding assay, CSF1R Kd. Also noted: made in house. Put shortly: as §1
Where [4] appears, read: 10 μM, panel of 386 or 392 distinct kinases.
Where [5] appears, read: HEK293 cells, M-CSF stimulated CSF1R phosphorylation, MSD.
[6] abbreviates: compounds at 10 μM, 386 or 392 distinct kinases.
Setting [7] is: 2 h compound, human M-CSF 50 ng/mL for 5 min.

Where two headings read alike, the source gives them in different places.

Broadly, the Kd is the constant that tells how readily two partners part at equilibrium. As a reminder, the IC50 is the concentration that inhibits the measured activity by half.

T2 sequence (P07333 20-972): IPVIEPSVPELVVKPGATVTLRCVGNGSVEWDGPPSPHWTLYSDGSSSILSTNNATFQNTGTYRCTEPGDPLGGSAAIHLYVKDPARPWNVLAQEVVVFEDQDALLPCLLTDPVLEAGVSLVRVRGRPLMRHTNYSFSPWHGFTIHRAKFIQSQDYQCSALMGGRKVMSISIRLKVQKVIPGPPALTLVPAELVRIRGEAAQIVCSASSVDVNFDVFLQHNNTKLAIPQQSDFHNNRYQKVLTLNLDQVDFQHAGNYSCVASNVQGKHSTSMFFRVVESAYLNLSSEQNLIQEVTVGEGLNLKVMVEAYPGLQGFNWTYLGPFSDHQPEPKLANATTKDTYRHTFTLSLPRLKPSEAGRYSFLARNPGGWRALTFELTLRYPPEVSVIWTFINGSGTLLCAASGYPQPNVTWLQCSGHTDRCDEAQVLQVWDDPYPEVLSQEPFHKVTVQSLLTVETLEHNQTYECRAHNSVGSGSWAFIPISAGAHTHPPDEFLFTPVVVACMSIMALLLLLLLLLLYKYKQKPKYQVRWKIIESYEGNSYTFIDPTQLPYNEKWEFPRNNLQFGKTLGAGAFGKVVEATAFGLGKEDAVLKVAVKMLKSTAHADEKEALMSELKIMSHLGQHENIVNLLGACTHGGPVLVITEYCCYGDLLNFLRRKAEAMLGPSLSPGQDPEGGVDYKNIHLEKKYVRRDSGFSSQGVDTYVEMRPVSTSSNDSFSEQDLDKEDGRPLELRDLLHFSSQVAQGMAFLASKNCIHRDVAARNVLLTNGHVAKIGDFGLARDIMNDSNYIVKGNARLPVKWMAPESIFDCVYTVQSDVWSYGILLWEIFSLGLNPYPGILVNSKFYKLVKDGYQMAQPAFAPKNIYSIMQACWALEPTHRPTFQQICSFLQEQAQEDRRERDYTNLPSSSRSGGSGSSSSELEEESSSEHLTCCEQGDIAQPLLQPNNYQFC
T3 sequence (P10721 26-976): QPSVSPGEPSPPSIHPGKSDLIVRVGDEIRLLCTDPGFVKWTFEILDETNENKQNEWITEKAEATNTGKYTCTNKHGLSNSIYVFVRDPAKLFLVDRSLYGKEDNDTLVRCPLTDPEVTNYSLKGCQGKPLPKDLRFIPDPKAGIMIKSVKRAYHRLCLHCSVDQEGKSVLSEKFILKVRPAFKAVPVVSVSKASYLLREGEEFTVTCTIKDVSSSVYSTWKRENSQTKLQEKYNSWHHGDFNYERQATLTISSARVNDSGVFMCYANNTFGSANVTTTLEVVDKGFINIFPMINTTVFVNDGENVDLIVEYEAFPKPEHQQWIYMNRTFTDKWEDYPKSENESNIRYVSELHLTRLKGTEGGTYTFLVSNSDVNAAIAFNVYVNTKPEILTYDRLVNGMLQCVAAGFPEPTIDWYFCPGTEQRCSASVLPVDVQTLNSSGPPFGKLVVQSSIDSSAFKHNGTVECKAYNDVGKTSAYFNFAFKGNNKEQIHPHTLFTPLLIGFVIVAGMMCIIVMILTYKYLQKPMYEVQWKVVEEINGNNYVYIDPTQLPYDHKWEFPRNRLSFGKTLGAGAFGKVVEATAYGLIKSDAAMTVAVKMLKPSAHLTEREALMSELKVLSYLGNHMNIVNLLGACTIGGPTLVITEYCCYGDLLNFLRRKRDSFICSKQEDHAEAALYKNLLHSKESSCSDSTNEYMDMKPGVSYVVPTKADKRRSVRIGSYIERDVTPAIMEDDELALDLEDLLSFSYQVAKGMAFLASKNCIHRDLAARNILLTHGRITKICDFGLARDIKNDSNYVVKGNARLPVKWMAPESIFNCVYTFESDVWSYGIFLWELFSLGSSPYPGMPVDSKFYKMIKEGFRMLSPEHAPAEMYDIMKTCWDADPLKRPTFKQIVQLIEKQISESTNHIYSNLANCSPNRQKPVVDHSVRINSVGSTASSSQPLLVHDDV
T1 sequence (P09619 33-1106): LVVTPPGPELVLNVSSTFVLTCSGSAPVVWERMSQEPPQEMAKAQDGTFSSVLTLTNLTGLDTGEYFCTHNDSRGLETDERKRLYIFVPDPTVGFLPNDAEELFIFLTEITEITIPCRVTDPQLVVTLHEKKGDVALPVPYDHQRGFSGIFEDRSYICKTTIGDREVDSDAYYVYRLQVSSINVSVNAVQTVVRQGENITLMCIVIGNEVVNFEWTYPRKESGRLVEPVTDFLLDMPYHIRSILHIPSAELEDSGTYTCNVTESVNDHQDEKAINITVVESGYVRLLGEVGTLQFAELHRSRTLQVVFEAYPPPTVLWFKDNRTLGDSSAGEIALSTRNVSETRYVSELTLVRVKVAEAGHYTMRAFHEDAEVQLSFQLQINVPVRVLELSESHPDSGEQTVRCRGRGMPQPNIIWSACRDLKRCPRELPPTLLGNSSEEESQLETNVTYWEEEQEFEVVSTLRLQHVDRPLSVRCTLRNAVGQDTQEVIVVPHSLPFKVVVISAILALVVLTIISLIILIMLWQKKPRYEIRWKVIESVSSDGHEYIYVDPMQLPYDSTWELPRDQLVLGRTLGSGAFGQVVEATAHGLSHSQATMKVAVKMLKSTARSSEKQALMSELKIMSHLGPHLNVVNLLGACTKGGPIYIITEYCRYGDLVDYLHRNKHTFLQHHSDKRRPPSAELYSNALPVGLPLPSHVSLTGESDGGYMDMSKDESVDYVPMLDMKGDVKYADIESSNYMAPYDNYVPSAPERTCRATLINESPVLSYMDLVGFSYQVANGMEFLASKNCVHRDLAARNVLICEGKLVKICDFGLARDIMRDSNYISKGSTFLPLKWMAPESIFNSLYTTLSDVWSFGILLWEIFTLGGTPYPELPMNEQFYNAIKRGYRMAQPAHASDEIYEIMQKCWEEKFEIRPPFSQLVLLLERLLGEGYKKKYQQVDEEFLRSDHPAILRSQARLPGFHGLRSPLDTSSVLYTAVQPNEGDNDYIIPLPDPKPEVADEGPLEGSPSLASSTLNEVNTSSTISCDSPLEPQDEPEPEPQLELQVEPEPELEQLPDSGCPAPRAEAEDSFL

Consider `C=CCOc1ccn2c(Cc3ccc4nc(N[C@@H]5CCCC[C@H]5O)sc4c3)cnc2c1` [Example 217, (1R,2R)-2-((6-((7-(allyloxy)imidazo[1,2-a]pyridin-3-yl)methyl)benzo[d]thiazol-2-yl)amino)cyclohexanol], for which the “Kinase specificity S(10)” value in assay [1] (setting [4]) is recorded as “A (A≤0.01)”. In addition, the Kd at PDGFRβ (competition binding) fell in the range of 50 to 500 nM; on KIT (competition binding), 500 to 2000 nM; at CSF1R [3] (competition binding) it was 5 to 20 nM. For the same compound, the IC50 at CSF1R [2] (setting [5]) fell in the range of 50 to 200 nM.

On to `COc1cc2c(cc1Br)ncn2Cc1ccc2nc(N[C@@H]3CCCC[C@H]3O)sc2c1` [Example 41, (1R,2R)-2-((6-((5-bromo-6-methoxy-1H-benzo[d]imidazol-1-yl)methyl)benzo[d]thiazol-2-yl)amino)cyclohexanol], for which the “Kinase specificity S(10)” value in assay [1] (setting [6]) is “A (A≤0.01)”. Further, the Kd on PDGFRβ is 500 to 2000 nM; on KIT, 100 to 500 nM; at CSF1R [3], 5 to 20 nM. In addition, at CSF1R [2] (setting [7]), the IC50 fell in the range of 50 to 200 nM.

Turning to `COc1cc2c(cc1-c1cnn(C)c1)ncn2Cc1ccc2nc(N[C@@H]3CCCC[C@H]3O)sc2c1` [Example 51, (1R,2R)-2-((6-((6-methoxy-5-(1-methyl-1H-pyrazol-4-yl)-1H-benzo[d]imidazol-1-yl)methyl)benzo[d]thiazol-2-yl)amino)cyclohexanol], in assay [1] (setting [6]), the “Kinase specificity S(10)” value was “C (C>0.02)”. Further, the results for the Kd at PDGFRβ, at KIT and at CSF1R [3] were at most 50 nM, at most 100 nM and at most 5 nM, respectively. For the same compound, the IC50 at CSF1R [2] (setting [7]) was at most 50 nM.

In the case of `OCc1cnc2c(c1)ncn2Cc1ccc2nc(N[C@@H]3CCCC[C@H]3O)sc2c1` [Example 84, (1R,2R)-2-((6-((6-(hydroxymethyl)-3H-imidazo[4,5-b]pyridin-3-yl)methyl)benzo[d]thiazol-2-yl)amino)cyclohexanol], the “Kinase specificity S(10)” value in assay [1] (setting [6]) is reported as “A (A≤0.01)”. Further, the Kd was in the range of 50 to 500 nM on PDGFRβ, 100 to 500 nM on KIT and 5 to 20 nM on CSF1R [3]. Besides, on CSF1R [2] (setting [7]), the IC50 was at most 50 nM.

With “either (1R,2R)-1-((6-((4-(1-methyl-1H-pyrazol-4-yl)-1H-imidazol-1-yl)methyl)benzo[d]thiazol-2-yl)amino)-2,3-dihydro-1H-inden-2-ol or (1R,2R)-1-((6-((5-(1-methyl-1H-pyrazol-4-yl)-1H-imidazol-1-yl)methyl)benzo[d]thiazol-2-yl)amino)-2,3-dihydro-1H-inden-2-ol [Example 83]”, the “Kinase specificity S(10)” value in assay [1] (setting [6]) is listed as “A (A≤0.01)”. Besides, the Kd was 50 to 500 nM on PDGFRβ, 500 to 2000 nM on KIT and at most 5 nM on CSF1R [3]. The IC50 at CSF1R [2] (setting [7]) was in the range of 50 to 200 nM.

As for `C=Cc1ccn2c(Cc3ccc4nc(N[C@@H]5CCCC[C@H]5O)sc4c3)cnc2c1` [Example 216, (1R,2R)-2-((6-((7-vinylimidazo[1,2-a]pyridin-3-yl)methyl)benzo[d]thiazol-2-yl)amino)cyclohexanol], the “Kinase specificity S(10)” value in assay [1] (setting [4]) is given as “A (A≤0.01)”. Further, the results for the dissociation constant Kd on PDGFRβ (competition binding), at KIT (competition binding) and at CSF1R [3] (competition binding) were 50 to 500 nM, 500 to 2000 nM and 5 to 20 nM, respectively. Further, the IC50 at CSF1R [2] (setting [5]) was in the range of 50 to 200 nM.

Consider `O[C@@H]1Cc2ccccc2[C@H]1Nc1nc2ccc(Cn3cnc4cccnc43)cc2o1` [Example 57, (1R,2R)-1-((6-((3H-imidazo[4,5-b]pyridin-3-yl)methyl)benzo[d]oxazol-2-yl)amino)-2,3-dihydro-1H-inden-2-ol], for which the “Kinase specificity S(10)” value in assay [1] (setting [6]) is listed as “C (C>0.02)”. Moreover, the results for the Kd at PDGFRβ, at KIT and at CSF1R [3] were at most 50 nM, at most 100 nM and at most 5 nM, respectively. In addition, the IC50 at CSF1R [2] (setting [7]) lay within 50 to 200 nM.

On to `O[C@@H]1CCCC[C@H]1Nc1nc2ccc(Cn3cnc4cc(N5CCOCC5)cnc43)cc2s1` [Example 97, (1R,2R)-2-((6-((6-morpholino-3H-imidazo[4,5-b]pyridin-3-yl)methyl)benzo[d]thiazol-2-yl)amino)cyclohexanol], for which the “Kinase specificity S(10)” value in assay [1] (setting [6]) was “B (0.01<B≤0.02)”. For the same compound, the Kd on PDGFRβ was at most 50 nM; on KIT it was at most 100 nM; on CSF1R [3], 5 to 20 nM. Further, the half-maximal inhibitory concentration (IC50) on CSF1R [2] (setting [7]) is at most 50 nM.

In the case of `CC(=O)c1cnc2c(c1)ncn2Cc1ccc2nc(N[C@@H]3CCCC[C@H]3O)sc2c1` [Example 73, 1-(3-((2-(((1R,2R)-2-hydroxycyclohexyl)amino)benzo[d]thiazol-6-yl)methyl)-3H-imidazo[4,5-b]pyridin-6-yl)ethanone], the “Kinase specificity S(10)” value in assay [1] (setting [6]) was “A (A≤0.01)”. Besides, the dissociation constant Kd on PDGFRβ was at most 50 nM; at KIT, 100 to 500 nM; at CSF1R [3] it was 5 to 20 nM. Besides, the IC50 on CSF1R [2] (setting [7]) is at most 50 nM.

On to `CC(=O)Nc1cn(Cc2ccc3nc(N[C@@H]4CCCC[C@H]4O)sc3c2)cn1` [Example 101, N-(1-((2-(((1R,2R)-2-hydroxycyclohexyl)amino)benzo[d]thiazol-6-yl)methyl)-1H-imidazol-4-yl)acetamide], for which the “Kinase specificity S(10)” value in assay [1] (setting [6]) is recorded as “B (0.01<B≤0.02)”. The Kd at PDGFRβ was 50 to 500 nM; at KIT, 500 to 2000 nM; on CSF1R [3], 20 to 50 nM. The 50% inhibitory concentration (IC50) at CSF1R [2] (setting [7]) was in the range of 50 to 200 nM.

In the case of `COc1cc2ncn(Cc3ccc4nc(N[C@@H]5CCCC[C@H]5O)sc4c3)c2cc1Br` [Example 47, (1R,2R)-2-((6-((6-bromo-5-methoxy-1H-benzo[d]imidazol-1-yl)methyl)benzo[d]thiazol-2-yl)amino)cyclohexanol], the “Kinase specificity S(10)” value in assay [1] (setting [6]) is “B (0.01<B≤0.02)”. Further, the Kd at PDGFRβ was 50 to 500 nM; on KIT, at most 100 nM; at CSF1R [3], 5 to 20 nM. Besides, on CSF1R [2] (setting [7]), the IC50 was 50 to 200 nM.

For the compound `COc1cc2c(cc1Br)ncn2Cc1ccc2nc(N[C@@H]3c4ccccc4C[C@H]3O)sc2c1` [Example 49, (1R,2R)-1-((6-((5-bromo-6-methoxy-1H-benzo[d]imidazol-1-yl)methyl)benzo[d]thiazol-2-yl)amino)-2,3-dihydro-1H-inden-2-ol], in assay [1] (setting [6]), the “Kinase specificity S(10)” value was “A (A≤0.01)”. The results for the Kd on PDGFRβ, at KIT and on CSF1R [3] were 500 to 2000 nM, 500 to 2000 nM and 5 to 20 nM, respectively. Also, the IC50 on CSF1R [2] (setting [7]) lay within 200 to 500 nM.

Turning to `Fc1cnc2c(c1)ncn2Cc1ccc2nc(N[C@@H]3CCCC[C@H]3Cl)sc2c1` [Example 198, N-((1R,2R)-2-chlorocyclohexyl)-6-((6-fluoro-3H-imidazo[4,5-b]pyridin-3-yl)methyl)benzo[d]thiazol-2-amine], the “Kinase specificity S(10)” value in assay [1] (setting [4]) is recorded as “B (0.01<B≤0.02)”. For the same compound, the Kd is at most 50 nM on PDGFRβ (competition binding), 100 to 500 nM at KIT (competition binding) and at most 5 nM on CSF1R [3] (competition binding). Besides, the IC50 at CSF1R [2] (setting [5]) was in the range of 200 to 500 nM.

On to `CSCc1cnc2c(c1)ncn2Cc1ccc2nc(N[C@@H]3CCCC[C@H]3O)sc2c1` [Example 86, (1R,2R)-2-((6-((6-((methylthio)methyl)-3H-imidazo[4,5-b]pyridin-3-yl)methyl)benzo[d]thiazol-2-yl)amino)cyclohexanol], for which, in assay [1] (setting [6]), the “Kinase specificity S(10)” value is “C (C>0.02)”. Moreover, the Kd at PDGFRβ is at most 50 nM; on KIT, at most 100 nM; on CSF1R [3] it was 5 to 20 nM. The IC50 at CSF1R [2] (setting [7]) is at most 50 nM.

Regarding `COc1cc2ncn(Cc3ccc4nc(N[C@@H]5CCCC[C@H]5O)sc4c3)c2cc1-c1cnn(C)c1` [Example 52, (1R,2R)-2-((6-((5-methoxy-6-(1-methyl-1H-pyrazol-4-yl)-1H-benzo[d]imidazol-1-yl)methyl)benzo[d]thiazol-2-yl)amino)cyclohexanol], the “Kinase specificity S(10)” value in assay [1] (setting [6]) is listed as “C (C>0.02)”. For the same compound, the Kd at PDGFRβ was 50 to 500 nM; on KIT, at most 100 nM; at CSF1R [3], at most 5 nM. Moreover, the IC50 at CSF1R [2] (setting [7]) is at most 50 nM.
